Values after ≈ are worked out from the molar mass of the structure shown.
What was measured:
E. coli TG1 = test: microbe, parasite or virus in culture; format: cell-based; conditions: Escherichia coli, β-lactamase inhibitor alone
Protocol: (§1) The MICs of each of the individual compounds (antibiotics or inhibitors) were also determined. The MICs were determined for the E. coli isogenic expressing OXA-48 (and both OXA-48 and CTX-M-14) to assess their activity against the carbapenemase; MICs were also determined for the 18 Enterobacterales clinical isolates in order to evaluate the new inhibitors against also their resistance concomitant mechanisms. The MICs were determined in triplicate experiments, and the EUCAST 13.0 clinical breakpoints were followed (http://www.eucast.org/clinical_breakpoints).
(§2) For comparative evaluation of the activity of each inhibitor alone against the carbapenemase OXA-48, all inhibitors (at 4 mg/L) were tested in the presence of a carbapenem (ertapenem, adequate substrate) and a cephalosporin (ceftazidime, poor substrate) as reporter substrates. This prevented any possible masking effect produced by the different partner antibiotics. These assays were also performed with isogenic transformants and clinical isolates.

[1] = tested on: E. coli TG1 and HB4 transformants; test: MIC summary over E. coli transformants; format: cell-based, Escherichia coli; conditions: OXA-48-producing E. coli hosts; BLI 4 mg/L
Source text: (§3) The E. coli HB4 strain was used to gain a more complete perspective, by evaluating the involvement in resistance of a low permeability background with the carbapenemase OXA-48, as well as coproduction of an ESBL and the carbapenemase; thus, the ESBL CTX-M-14 and OXA-48 were cloned together and separately into E. coli HB4. The characteristics of these strains and transformants are summarized in Table S1, and the cloning procedures are outlined in the supplemental methods.
as §1, §2

OXA-48 = OXA-48 (Klebsiella pneumoniae, UniProt Q6XEC0); conditions: ref 26 Lahiri et al.; cited from earlier work
[2] = tested on: K. pneumoniae strain 497 (MLST 11, No ESBL); test: microbe, parasite or virus in culture; format: cell-based; conditions: Klebsiella pneumoniae; K. pneumoniae 497; β-lactamase inhibitor alone; read-out: MIC
Protocol: (§4) The efficacy of these new BLIs was also evaluated against 18 genetically diverse WGS-characterized collection of OXA-48-positive Enterobacterales recovered as part of the Carbapenem-resistant Enterobacterales Genome Database Project (https://genomes.cnag.cat/incredble) listed in Table S2 ([13]). Combinations of clinical isolates (five pairs of Klebsiella pneumoniae, two pairs of Enterobacter cloacae, and two pairs of E. coli) were chosen for analysis: (i) nine strains carrying ESBLs; and (ii) nine strains (genetically closer available strains) without ESBLs.
as §1, §2

[3] = tested on: K. pneumoniae strain 194 (MLST 392, No ESBL); test: microbe, parasite or virus in culture; format: cell-based; conditions: Klebsiella pneumoniae; K. pneumoniae 194; β-lactamase inhibitor alone; read-out: MIC
Protocol: as §4, §1, §2

[4] = tested on: E. coli strain 264 (MLST 131, No ESBL); test: microbe, parasite or virus in culture; format: cell-based; conditions: Escherichia coli; E. coli 264; β-lactamase inhibitor alone; read-out: MIC
Protocol: as §4, §1, §2

[5] = tested on: K. pneumoniae strain 413 (MLST 147, ESBL); test: microbe, parasite or virus in culture; format: cell-based; conditions: Klebsiella pneumoniae
Protocol: as §4, §1, §2

[6] = tested on: E. cloacae strain 281 (MLST 78, No ESBL); test: microbe, parasite or virus in culture; format: cell-based; conditions: Enterobacter cloacae; E. cloacae 281; β-lactamase inhibitor alone; read-out: MIC
Protocol: as §4, §1, §2

[7] = tested on: K. pneumoniae strain 170 (MLST 307, No ESBL); test: microbe, parasite or virus in culture; format: cell-based; conditions: Klebsiella pneumoniae; K. pneumoniae 170; β-lactamase inhibitor alone; read-out: MIC
Protocol: as §4, §1, §2

[8] = tested on: E. cloacae strain 272 (MLST 78, ESBL); test: microbe, parasite or virus in culture; format: cell-based; conditions: Enterobacter cloacae
Protocol: as §4, §1, §2

[9] = tested on: E. coli strain 103 (MLST 10, ESBL); test: microbe, parasite or virus in culture; format: cell-based; conditions: Escherichia coli
Protocol: as §4, §1, §2

[10] = tested on: K. pneumoniae strain 23 (MLST 392, ESBL); test: microbe, parasite or virus in culture; format: cell-based; conditions: Klebsiella pneumoniae
Protocol: as §4, §1, §2

[11] = tested on: E. coli strain 224 (MLST 127, No ESBL); test: microbe, parasite or virus in culture; format: cell-based; conditions: Escherichia coli; E. coli 224; β-lactamase inhibitor alone; read-out: MIC
Protocol: as §4, §1, §2

[12] = tested on: E. cloacae strain 231 (MLST 171, No ESBL); test: microbe, parasite or virus in culture; format: cell-based; conditions: Enterobacter cloacae; E. cloacae 231; β-lactamase inhibitor alone; read-out: MIC
Protocol: as §4, §1, §2

[13] = tested on: K. pneumoniae strain 19 (MLST 11, ESBL); test: microbe, parasite or virus in culture; format: cell-based; conditions: Klebsiella pneumoniae
Protocol: as §4, §1, §2

[14] = tested on: K. pneumoniae strain 125 (MLST 307, ESBL); test: microbe, parasite or virus in culture; format: cell-based; conditions: Klebsiella pneumoniae
Protocol: as §4, §1, §2

[15] = tested on: K. pneumoniae strain 71 (MLST 15, No ESBL); test: microbe, parasite or virus in culture; format: cell-based; conditions: Klebsiella pneumoniae; K. pneumoniae 71; β-lactamase inhibitor alone; read-out: MIC
Protocol: as §4, §1, §2

[16] = tested on: E. coli strain 177 (MLST 131, ESBL); test: microbe, parasite or virus in culture; format: cell-based; conditions: Escherichia coli
Protocol: as §4, §1, §2

[17] = tested on: K. pneumoniae strain 238 (MLST 15, ESBL); test: microbe, parasite or virus in culture; format: cell-based; conditions: Klebsiella pneumoniae
Protocol: as §4, §1, §2

[18] = tested on: E. cloacae strain 235 (MLST 171, ESBL); test: microbe, parasite or virus in culture; format: cell-based; conditions: Enterobacter cloacae
Protocol: as §4, §1, §2

[19] = tested on: K. pneumoniae strain 237 (MLST 147, No ESBL); test: microbe, parasite or virus in culture; format: cell-based; conditions: Klebsiella pneumoniae; K. pneumoniae 237; β-lactamase inhibitor alone; read-out: MIC
Protocol: as §4, §1, §2

E. coli TG1 (OXA-48) = test: microbe, parasite or virus in culture; format: cell-based, Escherichia coli; conditions: Escherichia coli
Protocol: as §1, §2

[20] = tested on: E. coli HB4 ΔompC/F (CTX-M-14); test: microbe, parasite or virus in culture; format: cell-based, Escherichia coli; conditions: Escherichia coli
Source text: as §3, §1, §2

[21] = tested on: E. coli HB4 ΔompC/F (OXA-48); test: microbe, parasite or virus in culture; format: cell-based, Escherichia coli; conditions: Escherichia coli
Source text: as §3, §1, §2

E. coli HB4 ΔompC/F = test: microbe, parasite or virus in culture; format: cell-based, Escherichia coli; conditions: Escherichia coli
Source text: as §3, §1, §2

[22] = tested on: E. coli HB4 ΔompC/F (CTX-M-14 + OXA-48); test: microbe, parasite or virus in culture; format: cell-based, Escherichia coli
Source text: as §3, §1, §2

Sequence of OXA-48 (Q6XEC0 23-265 limits assumed): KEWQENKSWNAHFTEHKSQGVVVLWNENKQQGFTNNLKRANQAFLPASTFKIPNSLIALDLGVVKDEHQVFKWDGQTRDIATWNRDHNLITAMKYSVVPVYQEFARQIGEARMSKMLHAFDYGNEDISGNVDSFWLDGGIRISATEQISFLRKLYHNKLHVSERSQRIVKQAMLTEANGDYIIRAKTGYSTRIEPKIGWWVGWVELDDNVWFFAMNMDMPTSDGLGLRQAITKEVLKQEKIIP

**Q.** With NC(=O)[C@@H]1CC[C@@H]2CN1C(=O)N2OS(=O)(=O)O [Avibactam, avibactam] as the compound, how does the MIC (E. coli TG1) read?
**A.** 4 µg/mL (≈ 15.1 µM)

**Q.** And the “decrease of ertapenem MIC with BLI” value [1]?
**A.** 8–256 fold

**Q.** What about the t1/2 (OXA-48) of the same compound?
**A.** 1,000 min

**Q.** And the MIC [2]?
**A.** ≥ 128 µg/mL

**Q.** And the MIC [3]?
**A.** 16 µg/mL

**Q.** And the MIC [4]?
**A.** 16 µg/mL

**Q.** And the MIC [5]?
**A.** 64 µg/mL

**Q.** And the MIC [6]?
**A.** 16 µg/mL

**Q.** And the MIC [7]?
**A.** 16 µg/mL

**Q.** What about the MIC [8] of the same compound?
**A.** 32 µg/mL

**Q.** And the MIC [9]?
**A.** 32 µg/mL

**Q.** And the MIC [10]?
**A.** 16 µg/mL

**Q.** And the MIC [11]?
**A.** 16 µg/mL

**Q.** What about the MIC [12] of the same compound?
**A.** 8 µg/mL

**Q.** And the MIC [13]?
**A.** ≥ 128 µg/mL

**Q.** And the MIC [14]?
**A.** 32 µg/mL

**Q.** And the MIC [15]?
**A.** 32 µg/mL

**Q.** What about the MIC [16] of the same compound?
**A.** 32 µg/mL

**Q.** What about the MIC [17] of the same compound?
**A.** 32 µg/mL

**Q.** What about the MIC [18] of the same compound?
**A.** 32 µg/mL

**Q.** What about the MIC [19] of the same compound?
**A.** 64 µg/mL

**Q.** And the MIC (E. coli TG1 (OXA-48))?
**A.** 4 µg/mL (≈ 15.1 µM)

**Q.** What about the MIC [20] of the same compound?
**A.** 16 µg/mL (≈ 60.3 µM)

**Q.** What about the MIC [21] of the same compound?
**A.** 8 µg/mL (≈ 30.2 µM)

**Q.** And the MIC (E. coli HB4 ΔompC/F)?
**A.** 8 µg/mL (≈ 30.2 µM)

**Q.** What about the “decrease of ertapenem MIC with BLI” value ([22]; E. coli HB4 coproducing CTX-M-14 and OXA-48, BLI 4 mg/L) of the same compound?
**A.** 256 fold

**Q.** And the MIC ([22]; Escherichia coli)?
**A.** 16 µg/mL (≈ 60.3 µM)

From PMC11823609, “Advancements in the fight against globally distributed OXA-48 carbapenemase: evaluating the new generation of carbapenemase inhibitors” (Antimicrobial Agents and Chemotherapy, 2025)
